Measurements taken from paper PMC3986399, “Discovery of Novel Allosteric Effectors Based on the Predicted Allosteric Sites for Escherichia coli D-3-Phosphoglycerate Dehydrogenase” (PLoS ONE, 2014).
Entries after “also recorded” stand apart in the source; their conditions may differ. Where two headings read alike, the source gives them in different places.

How the values were obtained:
PGDH [1] = biological target: T1, PGDH (Escherichia coli, UniProt P0A9T0); assay: Compound-substrate competition experiments; type: biochemical; settings: for competition with the substrate: constant compound concentration, increasing α-ketoglutarate; for inhibition at 50 µM: substrate increased from 156 µM to 10 mM, compound 50 µM, read-out: percentage of inhibition with increasing substrate
T1 construct: The PGDH coding region was ligated into the pET21a(+) vector; made in house; host or cells: E. coli BL21 (DE3)
Description: To investigate competition effects between the compounds and the substrate α-ketoglutarate, we performed compound-substrate competition experiments as follows:
Before α-ketoglutarate was added to start the reaction, the enzyme sample was pre-incubated with the cofactor and the compound for 6 min at 25°C. […] The cofactor NADH concentration was kept constant at 0.25 mM. […]
Serine-compound competition experiment […]
Competition experiments for analogs and the substrate
1-3 were kept at 92, 100, and 120 μM, while gradually increasing the substrate
concentration from 78 μM to 625 μM. […]

PGDH [2] = biological target: T1, PGDH; assay: Enzyme kinetic analysis (Michaelis-Menten); type: biochemical; settings: compound 0 to 120 µM
Description: As in the competition experiments, enzyme reaction velocity vs. substrate relationships were measured at various compound concentrations. The compound concentrations used were 120, 80, 40, 24, 8, 4.8, 1.6, and 0.32 µM.
To evaluate the effects of the compounds on enzyme kinetics, Michaelis-Menten plots of PGDH incubated with different concentrations of compounds were measured. The apparent kinetic parameters kcat and Km were estimated by non-linear curve-fitting using Graphpad Prism 5.0 software, and their values are shown in Figure 6. […] The kcat of the pure enzyme was about 2.6 s^−1, which was in between the kcat values of the enzyme at the molecular concentrations of 8 µM and 24 µM.

PGDH mutant E129AK256A [3] = biological target: T2, PGDH mutant E129AK256A (Escherichia coli, UniProt P0A9T0, E129A/K256A); assay: PGDH enzyme assay, mutant E129AK256A; type: biochemical
T2 construct: The PGDH coding region was ligated into the pET21a(+) vector; made in house; host or cells: E. coli BL21 (DE3)
Description: (§1) To evaluate the effects of compounds on PGDH activity, compounds were first examined to have no fluorescence absorption at 456 nm, and then pre-incubated with enzyme samples in the assay buffer (20 mM tris-(hydroxymethyl) aminomethane hydrochloride (Tris-HCl), pH 7.5, 1 mM DTT, 1 mM EDTA, and 0.25 mM NADH) for 6 min at 25°C. […] Fluorescence signals were recorded for 3 min with a kinetics mode program. The cofactor concentration in the assay buffer was 0.25 mM and the substrate concentration was 5 mM [28]. IC50 or AC50 values were obtained by fitting the data to a three-parameter Hill model of the graph of log dose against percentage inhibition or activation from at least three sets of experiments. Percentages of inhibition or activation were calculated according to the following equation: [drawing 1] in which Vo and Vi represent the maximum reaction rate of the enzyme incubated without or with compounds and Vn represents the maximum degradation rate of NADH.
(§2) All mutagenesis experiments were carried out according to the instructions of the QuikChange site-directed mutagenesis (Stratagene). The plasmid pET-21a(+)-containing wild-type (WT) PGDH was mutated to obtain the mutants E129A, S146A, F147A, K256A, K152AK230A, and E129AK256A. The DNA sequences of all mutants were verified by DNA sequencing. […]

PGDH mutant F147A [4] = biological target: T3, PGDH mutant F147A (Escherichia coli, UniProt P0A9T0, F147A); assay: PGDH enzyme assay, mutant F147A; type: biochemical
T3 construct: The PGDH coding region was ligated into the pET21a(+) vector; made in house; host or cells: E. coli BL21 (DE3)
Description: as §1, §2

E. coli PGDH (wild type) = biological target: T4, E. coli PGDH (wild type) (Escherichia coli, UniProt P0A9T0); assay: PGDH enzyme assay (NADH fluorescence, α-ketoglutarate substrate), wild type; type: biochemical; settings: for inhibition at 50 µM: compound 50 µM; for maximum enzyme activity (residual activity, activation): low compound concentration, >100% = activation
T4 construct: The PGDH coding region was ligated into the pET21a(+) vector; made in house; host or cells: E. coli BL21 (DE3)
Description: as §1

PGDH [5] = biological target: T1, PGDH; assay: Serine-compound competition experiment; type: biochemical; settings: compound 40 µM; serine 1.6 to 200 µM
Description: Serine-compound competition experiment
Serine-compound competition experiments were did like that for compound-substrate experiments, before the reaction was started, the enzyme was pre-incubated with the mixture of serine and compound for 6 minutes. During this process, compound was kept at a constant inhibitory concentration, and the serine concentrations were changed from 1.6 to 200
μM. The concentrations of compounds 1 and 2 were selected as 40 μM. […]

PGDH (WT) = biological target: T5, PGDH (WT) (Escherichia coli, UniProt P0A9T0); assay: SPR direct binding to immobilized PGDH
T5 construct: The PGDH coding region was ligated into the pET21a(+) vector; made in house; host or cells: E. coli BL21 (DE3)
Description: (§3) PGDH and its mutants were immobilized on a CM5 sensor chip by using standard amine-coupling at 25°C with running buffer HBS-P (20 mM […], 0.05% surfactant P-20, pH 7.4), respectively. […] A reference flow cell was activated and blocked in the absence of PGDH. […] Regeneration was achieved by extended washing with the running buffer after each sample injection. […] In the binding site verification SPR experiments, the sensor chip surface was immobilized with WT PGDH and its mutants to a RU of 4000, respectively. The analytes, compounds 1 and 2, were injected over the chip at a fixed concentration of 50 and 25 µM, respectively.

PGDH mutant Y410A = biological target: T6, PGDH mutant Y410A (Escherichia coli, UniProt P0A9T0, Y410A); assay: SPR binding site verification, site II mutant Y410A; settings: compound 1 at 50 µM, compound 2 at 25 µM
T6 construct: The PGDH coding region was ligated into the pET21a(+) vector; made in house
Description: as §3
(§4) We also tested whether compounds 1 and 2 might interact with the other allosteric site (site II) we discovered before. The key binding residue in site II, Y410 was mutated to A. The binding of these two compounds with the wild type enzyme, Y410A, and two site I mutants (F147A, E129AK256A) were tested using SPR direct binding assay. The immobilization levels for WT, Y410A, F147A and E129AK256A were kept almost the same (3506, 3792, 3756 and 3600 RU, respectively) and the concentrations of compounds 1 and 2 were kept at 50 µM and 25 µM. […] This verified that both compounds 1 and 2 bind specifically to the site I as designed.

PGDH mutant K256A = biological target: T7, PGDH mutant K256A (Escherichia coli, UniProt P0A9T0, K256A); assay: PGDH enzyme assay, mutant K256A; type: biochemical
T7 construct: The PGDH coding region was ligated into the pET21a(+) vector; made in house; host or cells: E. coli BL21 (DE3)
Description: as §1, §2

PGDH mutant E129AK256A [6] = biological target: T2, PGDH mutant E129AK256A; assay: SPR binding site verification, site I mutant E129AK256A; settings: compound 1 at 50 µM, compound 2 at 25 µM
Description: as §3, §4

PGDH mutant F147A [7] = biological target: T3, PGDH mutant F147A; assay: SPR binding site verification, site I mutant F147A; settings: compound 1 at 50 µM, compound 2 at 25 µM
Description: as §3, §4

PGDH mutant E129A = biological target: T8, PGDH mutant E129A (Escherichia coli, UniProt P0A9T0, E129A); assay: PGDH enzyme assay, mutant E129A; type: biochemical
T8 construct: The PGDH coding region was ligated into the pET21a(+) vector; made in house; host or cells: E. coli BL21 (DE3)
Description: as §1, §2

PGDH mutant K152AK230A = biological target: T9, PGDH mutant K152AK230A (Escherichia coli, UniProt P0A9T0, K152A/K230A); assay: PGDH enzyme assay, mutant K152AK230A; type: biochemical
T9 construct: The PGDH coding region was ligated into the pET21a(+) vector; made in house; host or cells: E. coli BL21 (DE3)
Description: as §1, §2

PGDH mutant S146A = biological target: T10, PGDH mutant S146A (Escherichia coli, UniProt P0A9T0, S146A); assay: PGDH enzyme assay, mutant S146A; type: biochemical
T10 construct: The PGDH coding region was ligated into the pET21a(+) vector; made in house; host or cells: E. coli BL21 (DE3)
Description: as §1, §2

PGDH from pea = settings: PGDH from peas, cited from earlier work
[8] = wild type PGDH, substrate 5 mM, NADH 0.25 mM, read-out: IC50

## Cc1ccc(N2NC(=O)/C(=C/c3ccc(-c4ccc(S(=O)(=O)Nc5nccs5)cc4)o3)C2=O)cc1C [Compound 2]
PGDH [1]
  competition with the substrate: do not competitively bind to the same site
  inhibition at 50 µM: 20 to 50%
PGDH [2]
  effect on Km / substrate affinity of the enzyme: enhanced the substrate affinity for the enzyme
PGDH mutant E129AK256A [3]
  IC50: > 200 µM
PGDH mutant F147A [4]
  IC50: 158 ± 22 µM
E. coli PGDH (wild type); substrate 5 mM
  inhibition at 50 µM: ~50%
  maximum enzyme activity (residual activity, activation): 163%
  concentration above which the compound is an inhibitor: above 1.6 µM
  concentration at which activation starts: about 2 nM
  concentration of highest activation: about 64 nM
E. coli PGDH (wild type); fit of activation dose response curve, substrate 5 mM
  AC50: 0.0347 µM
E. coli PGDH (wild type); [8]
  IC50: 58 ± 9 µM
PGDH [5]
  influence on the inhibitory ability of serine: no significant effect; also recorded: not significantly influenced
PGDH (WT); SPR, 1:1 Langmuir binding model, PGDH 800 RU, read-out: KD
  Kd: 19 ± 1.9 µM
PGDH mutant Y410A
  compound binding ability to Y410A versus WT: retained the same extent of compound binding ability as WT
PGDH mutant K256A
  IC50: > 200 µM
PGDH mutant E129AK256A [6]
  compound binding ability to E129AK256A versus WT: a large decrease in compound binding ability
PGDH mutant F147A [7]
  compound binding ability to F147A versus WT: a large decrease in compound binding ability
PGDH mutant E129A
  IC50: 99 ± 13 µM

## Cc1ccccc1C(=O)Nc1ccccc1C(=O)N/N=C/c1ccccc1OCc1ccccc1[N+](=O)[O-] [Compound 3]
PGDH [1]
  competition with the substrate: percentage inhibition did not change
E. coli PGDH (wild type); compound 130 µM, substrate 5 mM
  inhibition at 130 µM: ~50%
E. coli PGDH (wild type); partial dose-inhibition curve due to solubility restriction
  maximal inhibition rate: 61.9%
E. coli PGDH (wild type); [8]
  IC50: 131 ± 12 µM
PGDH (WT); no reliable KD obtained
  SPR binding ability: weak binding ability

## O=C1NC(=S)NC(=O)C1=Cc1ccc(OC(=O)c2ccc3nc(-c4ccccc4)c(-c4ccccc4)nc3c2)cc1 [Compound 1]
PGDH [1]
  competition with the substrate: do not competitively bind to the same site
  inhibition at 50 µM: 20 to 50%
PGDH [2]
  effect on Km / substrate affinity of the enzyme: enhanced the substrate affinity for the enzyme
PGDH mutant K152AK230A
  IC50: > 200 µM
PGDH mutant F147A [4]
  IC50: 181 ± 26 µM
E. coli PGDH (wild type)
  IC50: 34.8 ± 1.3 µM
E. coli PGDH (wild type); substrate 5 mM
  inhibition at 50 µM: ~50%
  maximum enzyme activity (residual activity, activation): about 140%
  concentration above which the compound is an inhibitor: > 16 µM
PGDH [5]
  influence on the inhibitory ability of serine: no significant effect; also recorded: not significantly influenced
PGDH (WT)
  Kd: 42.6 ± 2.1 µM
PGDH mutant Y410A
  compound binding ability to Y410A versus WT: retained the same extent of compound binding ability as WT
PGDH mutant E129AK256A [6]
  compound binding ability to E129AK256A versus WT: a large decrease in compound binding ability
PGDH mutant S146A
  IC50: 175 ± 88 µM
PGDH mutant F147A [7]
  compound binding ability to F147A versus WT: a large decrease in compound binding ability

## CSCC[C@H](N)C(=O)O [L-methionine]
PGDH from pea; at maximal activation
  increase in enzyme activity: four- to five
PGDH from pea
  concentration of maximal activation: 10 mM
